Measurements published in BindingDB's records for doi:10.1016/j.bioorg.2014.07.012 (Kurukshetra University, 2014).

How the values were obtained:
[1] = target: Cathepsin B (Capra hircus, UniProt H9B8T9); experiment: Enzymatic activity assay; settings: pH 6; 37 °C
Protocol: (§1) Enzyme was equilibrated in 0.1 M phosphate buffer, pH 6.0 at 37 °C. All compounds were prepared in DMSO. Various concentrations of compounds were added in the reaction mixture separately. The reactions were incubated for 30 min and the activity was estimated by the usual enzyme assay at pH 6.0 using a-N-benzoyl-D,L-arginine-2-naphthylamide (BANA) as substrate.

[2] = target: T1, Cathepsin H (Capra hircus, UniProt A0A060INS8); experiment: Enzymatic activity assay; settings: pH 6; 37 °C
T1 sequence (A0A060INS8 whole entry): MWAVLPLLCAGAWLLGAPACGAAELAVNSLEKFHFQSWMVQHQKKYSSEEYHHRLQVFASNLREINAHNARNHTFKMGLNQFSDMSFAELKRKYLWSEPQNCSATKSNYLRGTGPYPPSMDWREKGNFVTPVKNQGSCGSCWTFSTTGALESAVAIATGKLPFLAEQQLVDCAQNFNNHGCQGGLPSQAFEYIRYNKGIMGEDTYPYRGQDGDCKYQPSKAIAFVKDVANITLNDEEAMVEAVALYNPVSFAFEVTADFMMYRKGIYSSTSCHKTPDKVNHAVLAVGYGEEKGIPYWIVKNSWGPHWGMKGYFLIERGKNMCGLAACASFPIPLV
Protocol: as §1

SMILES | Ki [1] | Ki [2]
O=C(c1ccccc1)N1N=C(c2ccccc2)CC1c1ccccc1 (stereo not given) [N-benzoyl-3,5-diphenylpyrazoline (2a)] | 1150 nM | 3200 nM
O=C(c1ccccc1)N1N=C(c2ccccc2)CC1c1ccccc1Cl (stereo not given) [N-benzoyl-5-(-2'-chlorophenyl)-3-phenylpyrazoline (2b)] | 775 nM | 1890 nM
COc1ccccc1C1CC(c2ccccc2)=NN1C(=O)c1ccccc1 (stereo not given) [N-benzoyl-5-(-2'-methoxyphenyl)-3-phenylpyrazoline (2e)] | 4900 nM | 9650 nM
O=C(c1ccccc1)N1N=C(c2ccccc2)CC1c1ccccc1[N+](=O)[O-] (stereo not given) [N-benzoyl-5-(-2'-nitrophenyl)-3-phenylpyrazoline (2h)] | 572 nM | 1440 nM
O=C(c1ccccc1)N1N=C(c2ccccc2)CC1c1cccc(Cl)c1 (stereo not given) [N-benzoyl-5-(-3'-chlorophenyl)-3-phenylpyrazoline (2c)] | 677 nM | 1810 nM
COc1cccc(C2CC(c3ccccc3)=NN2C(=O)c2ccccc2)c1 (stereo not given) [N-benzoyl-5-(-3'-methoxyphenyl)-3-phenylpyrazoline (2f)] | 1590 nM | 5030 nM
O=C(c1ccccc1)N1N=C(c2ccccc2)CC1c1cccc([N+](=O)[O-])c1 (stereo not given) [N-benzoyl-5-(-3'-nitrophenyl)-3-phenylpyrazoline (2i)] | 195 nM | 980 nM
O=C(c1ccccc1)N1N=C(c2ccccc2)CC1c1ccc(Cl)cc1 (stereo not given) [N-benzoyl-5-(-4'-chlorophenyl)-3-phenylpyrazoline (2d)] | 925 nM | 3010 nM
COc1ccc(C2CC(c3ccccc3)=NN2C(=O)c2ccccc2)cc1 (stereo not given) [N-benzoyl-5-(-4'-methoxyphenyl)-3-phenylpyrazoline (2g)] | 1280 nM | 4100 nM
O=C(c1ccccc1)N1N=C(c2ccccc2)CC1c1ccc([N+](=O)[O-])cc1 (stereo not given) [N-benzoyl-5-(-4'-nitrophenyl)-3-phenylpyrazoline (2j)] | 287 nM | 1270 nM
O=CN1N=C(c2ccccc2)CC1c1ccccc1 (stereo not given) [N-formyl-3,5-diphenylpyrazoline (1a)] | 22.7 nM | 174 nM
O=CN1N=C(c2ccccc2)CC1c1ccccc1Cl (stereo not given) [N-formyl-5-(-2'-chlorophenyl)-3-phenylpyrazoline (1b)] | 18 nM | 135 nM
COc1ccccc1C1CC(c2ccccc2)=NN1C=O (stereo not given) [N-formyl-5-(-2'-methoxyphenyl)-3-phenylpyrazoline (1e)] | 66.8 nM | 387 nM
O=CN1N=C(c2ccccc2)CC1c1ccccc1[N+](=O)[O-] (stereo not given) [N-formyl-5-(-2'-nitrophenyl)-3-phenylpyrazoline (1h)] | 14.1 nM | 96.3 nM
O=CN1N=C(c2ccccc2)CC1c1cccc(Cl)c1 (stereo not given) [N-formyl-5-(-3'-chlorophenyl)-3-phenylpyrazoline (1c)] | 14.6 nM | 130 nM
COc1cccc(C2CC(c3ccccc3)=NN2C=O)c1 (stereo not given) [N-formyl-5-(-3'-methoxyphenyl)-3-phenylpyrazoline (1f)] | 45.5 nM | 272 nM
O=CN1N=C(c2ccccc2)CC1c1cccc([N+](=O)[O-])c1 (stereo not given) [N-formyl-5-(-3'-nitrophenyl)-3-phenylpyrazoline (1i)] | 1.1 nM | 51.9 nM
O=CN1N=C(c2ccccc2)CC1c1ccc(Cl)cc1 (stereo not given) [N-formyl-5-(-4'-chlorophenyl)-3-phenylpyrazoline (1d)] | 21.1 nM | 137 nM
COc1ccc(C2CC(c3ccccc3)=NN2C=O)cc1 (stereo not given) [N-formyl-5-(-4'-methoxyphenyl)-3-phenylpyrazoline (1g)] | 44.8 nM | 221 nM
O=CN1N=C(c2ccccc2)CC1c1ccc([N+](=O)[O-])cc1 (stereo not given) [N-formyl-5-(-4'-nitrophenyl)-3-phenylpyrazoline (1j)] | 11.3 nM | 58 nM
